How the values were obtained:
Assay type in all cases: biochemical
[1] = target: T1, CDK2:Cyclin A (Homo sapiens, UniProt P24941); assay: CDK2 Screening Assay; details: 10 μM ATP, biotinylated histone-H1 peptide substrate, 33P-γ-ATP FlashPlate; read-out: Kinase IC50 CDK2
T1 construct: purchased Upstate Biotech, Lake Placid, N.Y
Protocol: (§1) A kinase reaction mixture was prepared containing 50 mM Tris.HCl pH=8, 10 mM MgCl2, 0.1 mM Na3PO4, 1 mM DTT, 10 μM ATP, 0.025 μM biotinylated histone-H1 peptide substrate and 0.2 μCuries per well ^33P-γ-ATP (2000-3000 Ci/mmol). 70 μL of the kinase reaction mixture was dispensed into the well of a streptavidin coated FlashPlate™ (Cat. # SMP103, NEN, Boston, Mass.). Then 1 μL of test compound stock in 100% DMSO was added to the wells resulting in a final concentration of 1% DMSO in the reaction well with a 100 μL final reaction well volume.
(§2) The CDK2:Cyclin A protein was diluted in 50 mM Tris.HCl pH=8.0, 0.1% BSA at a concentration of 1 ng per μL and 30 μL (30 ng enzyme per test well) was added to each well to initiate the reaction. The reaction was incubated for one hour at 30° C. At the end of the one hour incubation, the reaction was terminated by aspirating the mixture from the plate and washing the wells twice with PBS containing 100 mM EDTA. The histone-H1 biotinylated peptide substrate became immobilized on the Flashplate™ and the incorporation of ^33P-γ-ATP was measured by reading the plate on a scintillation counter. Inhibition of the enzymatic activity of CDK2 was measured by observing a reduced amount of ^33P-γ-ATP incorporated into the immobilized peptide.
The CDK2 kinase used was complexed with cyclin A and is commercially available (Upstate Biotech, Lake Placid, N.Y.).
(§3) An IC50 listed as >0.1, >1, >10 or >100 means no observed 50% inhibition at the indicated test concentration. […] ND means the compound was not tested in the assay specified.

[2] = target: T2, CDK1:Cyclin-B (Homo sapiens, UniProt P06493); assay: CDK1 Screening Assay; details: 10 μM ATP, biotinylated histone-H1 peptide substrate, 33P-γ-ATP FlashPlate; read-out: Kinase IC50 CDK1
T2 construct: purchased New England Biolabs, Beverly, Mass; 6020; host or cells: insect cells
T2 sequence (P06493 whole entry): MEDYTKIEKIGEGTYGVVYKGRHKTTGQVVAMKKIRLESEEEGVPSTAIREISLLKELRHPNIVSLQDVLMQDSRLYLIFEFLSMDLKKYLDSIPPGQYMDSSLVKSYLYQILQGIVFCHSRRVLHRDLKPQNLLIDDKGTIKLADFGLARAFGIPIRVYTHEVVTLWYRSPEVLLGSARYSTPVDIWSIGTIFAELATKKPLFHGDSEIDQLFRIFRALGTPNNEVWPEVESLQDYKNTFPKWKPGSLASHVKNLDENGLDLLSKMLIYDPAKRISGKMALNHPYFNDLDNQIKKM
T2 sequence (P14635 whole entry partner): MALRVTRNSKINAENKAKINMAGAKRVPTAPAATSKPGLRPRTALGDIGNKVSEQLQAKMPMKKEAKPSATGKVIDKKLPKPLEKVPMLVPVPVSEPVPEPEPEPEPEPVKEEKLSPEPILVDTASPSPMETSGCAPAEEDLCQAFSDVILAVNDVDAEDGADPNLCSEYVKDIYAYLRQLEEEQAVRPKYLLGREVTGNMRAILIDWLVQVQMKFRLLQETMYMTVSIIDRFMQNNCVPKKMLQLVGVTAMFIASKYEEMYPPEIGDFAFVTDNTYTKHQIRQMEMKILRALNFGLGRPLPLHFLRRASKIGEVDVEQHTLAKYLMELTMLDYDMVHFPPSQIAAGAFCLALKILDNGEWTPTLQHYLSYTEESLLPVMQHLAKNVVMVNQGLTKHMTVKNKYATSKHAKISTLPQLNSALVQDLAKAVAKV
Protocol: as §1
as §2, with “CDK1:Cyclin-B” for “CDK2:Cyclin A”, “CDK1” for “CDK2”
The CDK1 kinase used was isolated from insect cells expressing both the human CDK1 catalytic subunit and its positive regulatory subunit cyclin B (New England Biolabs, Beverly, Mass., Cat. # 6020).
as §3

[3] = target: VEGF-R2 kinase domain (Rattus norvegicus, UniProt O08775); assay: VEGF-R2 Screening Assay; details: 10 μM ATP, biotinylated PLC1 peptide substrate, 33P-γ-ATP FlashPlate; read-out: Kinase IC50 VEGFR
Chain of VEGF-R2 kinase domain (O08775 786-1343): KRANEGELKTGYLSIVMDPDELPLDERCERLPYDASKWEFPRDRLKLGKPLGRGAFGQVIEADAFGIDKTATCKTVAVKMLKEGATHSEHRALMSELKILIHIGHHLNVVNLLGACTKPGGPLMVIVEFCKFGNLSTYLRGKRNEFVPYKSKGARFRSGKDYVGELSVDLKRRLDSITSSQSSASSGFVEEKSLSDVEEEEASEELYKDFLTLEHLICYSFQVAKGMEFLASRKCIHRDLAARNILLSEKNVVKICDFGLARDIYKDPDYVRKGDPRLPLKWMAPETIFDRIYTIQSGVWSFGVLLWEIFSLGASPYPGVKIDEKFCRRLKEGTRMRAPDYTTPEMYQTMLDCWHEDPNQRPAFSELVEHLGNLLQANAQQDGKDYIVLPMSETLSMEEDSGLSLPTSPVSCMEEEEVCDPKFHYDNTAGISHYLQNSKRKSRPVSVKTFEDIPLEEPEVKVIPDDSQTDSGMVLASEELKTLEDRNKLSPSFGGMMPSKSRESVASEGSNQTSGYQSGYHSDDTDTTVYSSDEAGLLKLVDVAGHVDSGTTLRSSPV
Protocol: as §1, with “biotinylated” for “biotinylated histone-H1”, “0.8” for “0.2”
The soluble rat tyrosine kinase containing an N-terminal 6×HIS tag was diluted in 50 mM Tris.HCl pH=8.0, 0.1% BSA at a concentration of 5 ng per μL and 30 μL (150 ng enzyme per test well) was added to each well to initiate the reaction. The reaction was incubated for one hour at 30° C. At the end of the one hour incubation, the reaction was terminated by aspirating the reaction mixture from the plate and washing the wells twice with PBS containing 100 mM EDTA. The PLC1 biotinylated peptide substrate became immobilized on the Flashplate™ and the incorporation of ^33P-γ-ATP was measured by reading the plate on a scintillation counter. Inhibition of the enzymatic activity of the VEGF-R was measured by observing a reduced amount of ^33P-γ-ATP incorporated into the immobilized peptide.
The VEGF-R kinase assay was carried out using the CDK kinase assay procedure except that the enzyme was replaced with the VEGF-R2 fusion protein containing a polyhistidine tag at the N-terminus followed by amino acids 786-1343 of the rat VEGF-R2 kinase domain (GenBank Accession #U93306).
as §3

SMILES | IC50 [1] | IC50 [2] | IC50 [3]
O=C(Nc1cccc2sc(Nc3ccccc3)nc12)c1ccc(-c2ccccc2)cc1 [Cpd 34, biphenyl-4-carboxylic acid (2-phenylamino-benzothiazol-4-yl)-amide] | 13.6 µM | > 100 µM | > 100 µM
O=C(Nc1cccc2sc(Nc3ccccc3)nc12)c1cccs1 [Cpd 35, thiophene-2-carboxylic acid (2-phenylamino-benzothiazol-4-yl)-amide] | > 100 µM | > 100 µM | > 100 µM
O=C(Nc1cccc2sc(Nc3ccccc3)nc12)c1ccco1 [Cpd 37, furan-2-carboxylic acid (2-phenylamino-benzothiazol-4-yl)-amide] | 8.02 µM | > 100 µM | > 100 µM
Cc1cc(C)cc(C(=O)Nc2cccc3sc(Nc4ccccc4)nc23)c1 [Cpd 39, 3,5-dimethyl-N-(2-phenylamino-benzothiazol-4-yl)-benzamide] | 1.03 µM | 7.15 µM | > 100 µM
CCc1ccc(C(=O)Nc2cccc3sc(Nc4ccccc4)nc23)s1 [Cpd 42, 5-ethyl-thiophene-2-carboxylic acid (2-phenylamino-benzothiazol-4-yl)-amide] | > 100 µM | > 100 µM | > 100 µM
O=C(Nc1cccc2sc(Nc3ccccc3)nc12)c1cc([N+](=O)[O-])cc([N+](=O)[O-])c1 [Cpd 43, 3,5-dinitro-N-(2-phenylamino-benzothiazol-4-yl)-benzamide] | > 100 µM | > 100 µM | > 100 µM
O=C(Nc1cccc2sc(Nc3ccccc3)nc12)c1c(Cl)cc(Cl)cc1Cl [Cpd 44, 2,4,6-trichloro-N-(2-phenylamino-benzothiazol-4-yl)-benzamide] | 0.31 µM | 1.67 µM | > 100 µM
O=C(Nc1cccc2sc(Nc3ccccc3)nc12)c1c(F)cc(F)cc1F [Cpd 45, 2,4,6-trifluoro-N-(2-phenylamino-benzothiazol-4-yl)-benzamide] | 1.66 µM | > 10 µM | > 100 µM
Cc1ccc(F)c(C(=O)Nc2cccc3sc(Nc4ccc(N5CCN(C)CC5)cc4)nc23)c1F [Cpd 49, 2,6-difluoro-3-methyl-N-{2-[4-(4-methyl-piperazin-1-yl)-phenylamino]-benzothiazol-4-yl}-benzamide] | 0.679 µM | 2.71 µM | ≥ 100 µM
O=C(Cc1ccccc1)Nc1cccc2sc(Nc3ccccc3)nc12 [Cpd 51, 2-phenyl-N-(2-phenylamino-benzothiazol-4-yl)-acetamide] | 1.19 µM | > 100 µM | > 100 µM
O=C(Nc1cccc2sc(Nc3ccccc3)nc12)C1CCCC1 [Cpd 52, cyclopentanecarboxylic acid (2-phenylamino-benzothiazol-4-yl)-amide] | 1.37 µM | > 100 µM | > 100 µM
O=C(Nc1cccc2sc(Nc3ccccc3)nc12)Oc1ccccc1 [Cpd 53, (2-phenylamino-benzothiazol-4-yl)-carbamic acid phenyl ester] | > 100 µM | > 100 µM | > 100 µM
O=C(CCc1ccccc1)Nc1cccc2sc(Nc3ccccc3)nc12 [Cpd 54, 3-phenyl-N-(2-phenylamino-benzothiazol-4-yl)-propionamide] | > 100 µM | > 100 µM | > 100 µM
Cc1nnsc1C(=O)Nc1cccc2sc(Nc3ccccc3)nc12 [Cpd 56, 4-methyl-[1,2,3]thiadiazole-5-carboxylic acid (2-phenylamino-benzothiazol-4-yl)-amide] | > 10 µM | > 100 µM | > 100 µM
O=C(CC1CCCCC1)Nc1cccc2sc(Nc3ccccc3)nc12 [Cpd 58, 2-cyclohexyl-N-(2-phenylamino-benzothiazol-4-yl)-acetamide] | > 100 µM | > 100 µM | > 100 µM
O=C(Nc1cccc2sc(Nc3ccccc3)nc12)c1cc2c(Cl)cc(Cl)cc2[nH]1 [Cpd 59, 4,6-dichloro-1H-indole-2-carboxylic acid (2-phenylamino-benzothiazol-4-yl)-amide] | > 100 µM | > 100 µM | > 100 µM

Second part, the compound after the results:

IC50 [1] | IC50 [2] | IC50 [3] | SMILES
4.02 µM | 42.7 µM | ≥ 100 µM | O=C(Nc1cccc2sc(Nc3ccccc3)nc12)c1cccnc1 [Cpd 36, N-(2-phenylamino-benzothiazol-4-yl)-nicotinamide]
11 µM | > 100 µM | > 100 µM | N#Cc1cccc(C(=O)Nc2cccc3sc(Nc4ccccc4)nc23)c1 [Cpd 38, 3-cyano-N-(2-phenylamino-benzothiazol-4-yl)-benzamide]
> 100 µM | > 100 µM | > 100 µM | O=C(Nc1cccc2sc(Nc3ccccc3)nc12)c1ccc2ccccc2c1 [Cpd 40, naphthalene-2-carboxylic acid (2-phenylamino-benzothiazol-4-yl)-amide]
2.05 µM | > 100 µM | ≥ 100 µM | O=C(Nc1cccc2sc(Nc3ccccc3)nc12)C1CCCCC1 [Cpd 41, cyclohexanecarboxylic acid (2-phenylamino-benzothiazol-4-yl)-amide]
16.1 µM | > 100 µM | > 100 µM | COc1cccc(OC)c1C(=O)Nc1cccc2sc(Nc3ccccc3)nc12 [Cpd 46, 2,6-dimethoxy-N-(2-phenylamino-benzothiazol-4-yl)-benzamide]
0.611 µM | 4.3 µM | > 100 µM | O=C(Nc1cccc2sc(Nc3ccccc3)nc12)c1c(Cl)cccc1Cl [Cpd 47, 2,6-dichloro-N-(2-phenylamino-benzothiazol-4-yl)-benzamide]
> 100 µM | > 100 µM | > 100 µM | O=C(Nc1cccc2sc(Nc3ccccc3)nc12)c1cc2ccccc2s1 [Cpd 50, benzo[b]thiophene-2-carboxylic acid (2-phenylamino-benzothiazol-4-yl)-amide]
> 100 µM | > 100 µM | > 100 µM | O=C(Nc1cccc2sc(Nc3ccccc3)nc12)C1CCCCCC1 [Cpd 55, cycloheptanecarboxylic acid (2-phenylamino-benzothiazol-4-yl)-amide]
13.3 µM | > 100 µM | > 100 µM | CC(C)(C)C(=O)Nc1cccc2sc(Nc3ccccc3)nc12 [Cpd 57, 2,2-dimethyl-N-(2-phenylamino-benzothiazol-4-yl)-propionamide]
> 100 µM | > 100 µM | > 100 µM | CC(C)(C)NC(=O)Nc1cccc2sc(Nc3ccccc3)nc12 [Cpd 60, 1-tert-butyl-3-(2-phenylamino-benzothiazol-4-yl)-urea]
> 100 µM | > 100 µM | > 100 µM | O=C(Nc1cccc2sc(Nc3ccccc3)nc12)NC1CCCCC1 [Cpd 61, 1-cyclohexyl-3-(2-phenylamino-benzothiazol-4-yl)-urea]
